Organism: Rattus norvegicus
Test: Open TG-GATES - Regimen: Single
Assay type: toxicity, organism-based, Sprague-Dawley
Set-up: regimen Single, gender Male, age 6 weeks
Conditions: in vivo, ip, 40 mg/kg, route intraperitoneal injection, dose level Low; for APTT / Bas / Eos / Fbg / Hb / Ht / Lym / MCH / MCHC / MCV / Mono / Neu / PT / Plat / RBC / Ret / WBC: tissue Blood; for KIDNEY_L / KIDNEY_R / KIDNEY_TOTAL: tissue Kidney; for LIVER: tissue Liver; for A/G / ALP / ALT / AST / BUN / CRE / Ca / Cl / DBIL / GLC / IP / K / LDH / Na / PL / RALB / TBIL / TC / TG / TP / gamma-GTP: tissue Plasma

Work on CC(C)=CC(=O)C=C(C)C [PHORONE] yielded a TERMINAL_BW (3 h) of 219.9 g, an APTT (3 h) of 16.7 s and a Bas (3 h) of 0%. It also gave an Eos (3 h) of 0.8%, a Fbg (3 h) of 211 mg/dL and a Hb (3 h) of 13.1 g/dL. It also gave a Ht (3 h) of 39.1%, a Lym (3 h) of 69.8% and an MCH (3 h) of 21.6 pg. The MCHC (3 h) was 33.5%, the MCV (3 h) was 64.4 fL and the Mono (3 h) was 8.4%. For the same molecule, the Neu (3 h) was 21.2%, the PT (3 h) was 12.2 s and the Plat (3 h) was 112.1 x10_4/uL. It also gave an RBC (3 h) of 608 x10_4/ul, a Ret (3 h) of 9.2% and a WBC (3 h) of 105.8 x10_2/uL. The KIDNEY_L (3 h) was 1 g, the KIDNEY_R (3 h) was 1 g and the KIDNEY_TOTAL (3 h) was 2 g. It also gave an LIVER (3 h) of 10.5 g, an A/G (3 h) of 2.3 and an ALP (3 h) of 735.6 IU/L. For the same molecule, the ALT (3 h) was 36.4 IU/L, the AST (3 h) was 78.6 IU/L and the BUN (3 h) was 14.8 mg/dL. The CRE (3 h) was 0.6 mg/dL, the Ca (3 h) was 10.6 mg/dL and the Cl (3 h) was 106 meq/L. It also gave a DBIL (3 h) of 0.034 mg/dL, a GLC (3 h) of 193.6 mg/dL and an IP (3 h) of 10.3 mg/dL. For the same molecule, the K (3 h) was 4.8 meq/L, the LDH (3 h) was 83.8 IU/L and the Na (3 h) was 139 meq/L. It also gave a PL (3 h) of 133.6 mg/dL, an RALB (3 h) of 3.6 g/dL and a TBIL (3 h) of 0.4 mg/dL. For the same molecule, the TC (3 h) was 75.4 mg/dL, the TG (3 h) was 46 mg/dL and the TP (3 h) was 5.2 g/dL. It also gave a gamma-GTP (3 h) of 2.4 IU/L, a TERMINAL_BW (6 h) of 219.1 g and an APTT (6 h) of 17.2 s. It also gave a Bas (6 h) of 0%, an Eos (6 h) of 0.6% and a Fbg (6 h) of 216.8 mg/dL. The Hb (6 h) was 13.5 g/dL, the Ht (6 h) was 40.3% and the Lym (6 h) was 66.2%. For the same molecule, the MCH (6 h) was 21.6 pg, the MCHC (6 h) was 33.4% and the MCV (6 h) was 64.8 fL. For the same molecule, the Mono (6 h) was 6.6%, the Neu (6 h) was 26.8% and the PT (6 h) was 12.3 s. For the same molecule, the Plat (6 h) was 114.9 x10_4/uL, the RBC (6 h) was 621.6 x10_4/ul and the Ret (6 h) was 9%. It also gave a WBC (6 h) of 90 x10_2/uL, a KIDNEY_L (6 h) of 1 g and a KIDNEY_R (6 h) of 1 g. It also gave a KIDNEY_TOTAL (6 h) of 2.1 g, an LIVER (6 h) of 9.8 g and an A/G (6 h) of 2.2. For the same molecule, the ALP (6 h) was 814.6 IU/L, the ALT (6 h) was 36.2 IU/L and the AST (6 h) was 70.8 IU/L. It also gave a BUN (6 h) of 13.8 mg/dL, a CRE (6 h) of 0.5 mg/dL and a Ca (6 h) of 10.8 mg/dL. The Cl (6 h) was 105 meq/L, the DBIL (6 h) was 0.048 mg/dL and the GLC (6 h) was 193.4 mg/dL. For the same molecule, the IP (6 h) was 10.1 mg/dL, the K (6 h) was 4.9 meq/L and the LDH (6 h) was 76 IU/L. It also gave a Na (6 h) of 138.2 meq/L, a PL (6 h) of 126.4 mg/dL and an RALB (6 h) of 3.6 g/dL. For the same molecule, the TBIL (6 h) was 0.5 mg/dL, the TC (6 h) was 72.2 mg/dL and the TG (6 h) was 36.6 mg/dL. It also gave a TP (6 h) of 5.3 g/dL, a gamma-GTP (6 h) of 1.6 IU/L and a TERMINAL_BW (9 h) of 220.4 g. It also gave an APTT (9 h) of 17.1 s, a Bas (9 h) of 0% and an Eos (9 h) of 1%. It also gave a Fbg (9 h) of 246.6 mg/dL, a Hb (9 h) of 13.2 g/dL and a Ht (9 h) of 39.8%. It also gave a Lym (9 h) of 63.8%, an MCH (9 h) of 21.8 pg and an MCHC (9 h) of 33.3%. It also gave an MCV (9 h) of 65.5 fL, a Mono (9 h) of 8.6% and a Neu (9 h) of 26.6%. It also gave a PT (9 h) of 12.1 s, a Plat (9 h) of 115.4 x10_4/uL and an RBC (9 h) of 609 x10_4/ul. It also gave a Ret (9 h) of 9.4%, a WBC (9 h) of 96.2 x10_2/uL and a KIDNEY_L (9 h) of 1 g. The KIDNEY_R (9 h) was 1 g, the KIDNEY_TOTAL (9 h) was 2 g and the LIVER (9 h) was 9.5 g. It also gave an A/G (9 h) of 2, an ALP (9 h) of 839.8 IU/L and an ALT (9 h) of 33.2 IU/L. For the same molecule, the AST (9 h) was 69 IU/L, the BUN (9 h) was 13.8 mg/dL and the CRE (9 h) was 0.5 mg/dL. For the same molecule, the Ca (9 h) was 10.8 mg/dL, the Cl (9 h) was 106.6 meq/L and the DBIL (9 h) was 0.04 mg/dL. It also gave a GLC (9 h) of 204.2 mg/dL, an IP (9 h) of 10 mg/dL and a K (9 h) of 4.7 meq/L. It also gave an LDH (9 h) of 91.4 IU/L, a Na (9 h) of 138.8 meq/L and a PL (9 h) of 131.8 mg/dL. For the same molecule, the RALB (9 h) was 3.6 g/dL, the TBIL (9 h) was 0.4 mg/dL and the TC (9 h) was 77.6 mg/dL. It also gave a TG (9 h) of 54 mg/dL, a TP (9 h) of 5.4 g/dL and a gamma-GTP (9 h) of 1.8 IU/L. The TERMINAL_BW (24 h) was 231.5 g, the APTT (24 h) was 16.9 s and the Bas (24 h) was 0%. The Eos (24 h) was 0.8%, the Fbg (24 h) was 231.2 mg/dL and the Hb (24 h) was 12.9 g/dL. It also gave a Ht (24 h) of 38.5%, a Lym (24 h) of 77.8% and an MCH (24 h) of 22 pg. It also gave an MCHC (24 h) of 33.6%, an MCV (24 h) of 65.4 fL and a Mono (24 h) of 5.6%. The Neu (24 h) was 16%, the PT (24 h) was 11.5 s and the Plat (24 h) was 113 x10_4/uL. For the same molecule, the RBC (24 h) was 589.8 x10_4/ul, the Ret (24 h) was 8.8% and the WBC (24 h) was 87.7 x10_2/uL. It also gave a KIDNEY_L (24 h) of 1 g, a KIDNEY_R (24 h) of 1 g and a KIDNEY_TOTAL (24 h) of 2 g. The LIVER (24 h) was 11.8 g, the A/G (24 h) was 2 and the ALP (24 h) was 774.8 IU/L. It also gave an ALT (24 h) of 34 IU/L, an AST (24 h) of 65 IU/L and a BUN (24 h) of 19.2 mg/dL. The CRE (24 h) was 0.5 mg/dL, the Ca (24 h) was 11 mg/dL and the Cl (24 h) was 104.4 meq/L. For the same molecule, the DBIL (24 h) was 0.028 mg/dL, the GLC (24 h) was 197.2 mg/dL and the IP (24 h) was 8.3 mg/dL. For the same molecule, the K (24 h) was 4.7 meq/L, the LDH (24 h) was 87.6 IU/L and the Na (24 h) was 139 meq/L. For the same molecule, the PL (24 h) was 156 mg/dL, the RALB (24 h) was 3.8 g/dL and the TBIL (24 h) was 0.4 mg/dL. For the same molecule, the TC (24 h) was 81.8 mg/dL, the TG (24 h) was 118.2 mg/dL and the TP (24 h) was 5.7 g/dL. It also gave a gamma-GTP (24 h) of 0.6 IU/L.
